# Assays:
# [1] = tested on: primary mouse hepatocytes; assay: Gene expression in primary mouse hepatocytes, GTX vs non-GTX (four-gene classifier, 24 h)
# Protocol: Hepatocyte cells were incubated and exposed to a compound for 24 h before being harvested for RNA isolation.
# The results of the gene expression analysis may then be fed into a statistical software package such as R, Splus, or Microsoft Excel. […] If none or only one of these criteria were met, no point was scored.
# For each of the four genes mentioned in the table (1700007K13RIK, GAS2L3, SPC25, DDIT4L), a statistical comparison was made between the normalized expression data for these genes. […] If none or only one of these criteria were met, no point was scored.
# For each compound, the sum of the scores for four genes is taken. If this score is 0, a compound can be believed not to be genotoxic. If this score is 1, 2, 3 or 4, a compound is genotoxic.
# If none or only one of these criteria were met, no point was scored.
# [2] = tested on: primary mouse hepatocytes; assay: Gene expression (Affymetrix Mouse Genome 430 2.0) in primary mouse hepatocytes, true vs false GTX, 24 h and 48 h
substance,measurement,setting,value
Aflatoxin B1 [AFB1],Ratios of gene expression treated/untreated 1700007K13RIK,[1],2.912
same,Ratios of gene expression treated/untreated DDIT4L,[1],1.616
same,Ratios of gene expression treated/untreated GAS2L3,[1],1.234
same,Ratios of gene expression treated/untreated SPC25,[1],1.523
same,Total score,[1],4
same,score 1700007K13RIK,[1],1
same,score DDIT4L,[1],1
same,score GAS2L3,[1],1
same,score SPC25,[1],1
same,Gene expression AA561726 average,[2],−1.481
same,Gene expression AF000969 average,[2],−2.346
same,Gene expression AF022072 average,[2],−0.9913
same,Gene expression AF033112 average,[2],1.033
same,Gene expression AF055573 average,[2],−2.3744
same,Gene expression AF069954 average,[2],0.2361
same,Gene expression AF297615 average,[2],2.175
same,Gene expression AF335325 average,[2],1.3645
same,Gene expression AI594683 average,[2],1.508
same,Gene expression AI747296 average,[2],−1.533
same,Gene expression AK005731 average,[2],2.2191
same,Gene expression AK007854 average,[2],1.5416
same,Gene expression AK010447 average,[2],−1.2768
same,Gene expression AK010738 average,[2],0.6579
same,Gene expression AK014608 average,[2],1.186
same,Gene expression AK017734 average,[2],0.4796
same,Gene expression AK018383 average,[2],0.4069
same,Gene expression AK019979 average,[2],−2.271
same,Gene expression AV095209 average,[2],−0.6169
same,Gene expression AV141095 average,[2],−1.192
same,Gene expression AV173869 average,[2],−0.8814
same,Gene expression AV216768 average,[2],−1.282
same,Gene expression AV219418 average,[2],0.8603
same,Gene expression AV221299 average,[2],−0.7873
same,Gene expression AV246296 average,[2],1.098
same,Gene expression AV251625 average,[2],0.5471
same,Gene expression AV254764 average,[2],1.543
same,Gene expression AV327248 average,[2],1.4639
same,Gene expression BB009155 average,[2],1.3686
same,Gene expression BB027848 average,[2],−0.004367
same,Gene expression BB043558 average,[2],1.629
same,Gene expression BB046347 average,[2],0.5079
same,Gene expression BB140436 average,[2],−0.4938
same,Gene expression BB204486 average,[2],−1.371
same,Gene expression BB223872 average,[2],0.5263
same,Gene expression BB246912 average,[2],−1.2439
same,Gene expression BB275142 average,[2],0.5302
same,Gene expression BB458460 average,[2],−1.132
same,Gene expression BB463610 average,[2],1.2472
same,Gene expression BB730977 average,[2],−0.256
same,Gene expression BB743970 average,[2],0.3813
same,Gene expression BB770528 average,[2],0.8678
same,Gene expression BB781615 average,[2],0.9722
same,Gene expression BC003284 average,[2],0.7036
same,Gene expression BC004827 average,[2],−1.255
same,Gene expression BC005552 average,[2],−0.7309
same,Gene expression BC006713 average,[2],0.942
same,Gene expression BC010318 average,[2],−0.9565
same,Gene expression BC012247 average,[2],0.7954
same,Gene expression BC012955 average,[2],−1.403
same,Gene expression BC013893 average,[2],0.3479
same,Gene expression BC017615 average,[2],−2.585
same,Gene expression BC019379 average,[2],−1.263
same,Gene expression BC019882 average,[2],1.2329
same,Gene expression BC021352 average,[2],1.59
same,Gene expression BC022148 average,[2],1.0426
same,Gene expression BC025169 average,[2],−1.03
same,Gene expression BC026131 average,[2],−0.4476
same,Gene expression BC027026 average,[2],0.6995
same,Gene expression BC027121 average,[2],0.9799
same,Gene expression BC027185 average,[2],0.0776
same,Gene expression BE956581 average,[2],1.7703
same,Gene expression BF719766 average,[2],1.1094
same,Gene expression BG065754 average,[2],0.6884
same,Gene expression BG066491 average,[2],−1.6995
same,Gene expression BG076151 average,[2],0.4779
same,Gene expression BG076333 average,[2],−0.3573
same,Gene expression BG797099 average,[2],1.027
same,Gene expression BG967046 average,[2],0.6249
same,Gene expression BI651416 average,[2],1.979
same,Gene expression BI966443 average,[2],0.699
same,Gene expression BM198879 average,[2],1.579
same,Gene expression BM200015 average,[2],0.9342
same,Gene expression BM230508 average,[2],0.637
same,Gene expression BM936480 average,[2],0.1463
same,Gene expression BQ174991 average,[2],−0.6262
same,Gene expression L21027 average,[2],−1.868
same,Gene expression NM_007556 average,[2],−0.9667
same,Gene expression NM_007980 average,[2],0.412
same,Gene expression NM_007987 average,[2],0.8772
same,Gene expression NM_008522 average,[2],2.271
same,Gene expression NM_008935 average,[2],−1.772
same,Gene expression NM_009897 average,[2],1.054
same,Gene expression NM_011075 average,[2],1.1557
same,Gene expression NM_011176 average,[2],1.3047
same,Gene expression NM_011316 average,[2],0.6494
same,Gene expression NM_012006 average,[2],1.7541
same,Gene expression NM_013642 average,[2],−0.2528
same,Gene expression NM_013738 average,[2],0.4146
same,Gene expression NM_013929 average,[2],0.7449
same,Gene expression NM_018881 average,[2],0.2001
same,Gene expression NM_019738 average,[2],−2.37
same,Gene expression NM_030697 average,[2],1.271
same,Gene expression NM_053122 average,[2],−2.304
same,Gene expression NM_134147 average,[2],−1.51
same,Gene expression NM_134188 average,[2],−0.159
same,Gene expression X62701 average,[2],−0.6611
same,Gene expression data AF000969 (Cadps2),[2],−2.17
same,Gene expression data AF022072 (Grb10),[2],−1.2526
same,Gene expression data AF065917 (Lif),[2],0.6896
same,Gene expression data AF204959 (Cyp3a25 /// LOC622249),[2],1.404
same,Gene expression data AF297615 (Ggta1),[2],1.1224
same,Gene expression data AI594683 (Dmn),[2],1.048
same,Gene expression data AI596632 (Ptprg /// LOC632664),[2],−1.9945
same,Gene expression data AI987929 (Ndrg1),[2],−0.8074
same,Gene expression data AK004419 (Fbxl17),[2],−1.365
same,Gene expression data AK005731 (1700007K13Rik),[2],2.2462
same,Gene expression data AK007766 (1810044A24Rik),[2],−1.554
same,Gene expression data AK007854 (1810053B23Rik),[2],1.391
same,Gene expression data AK009736 (Gpr137b /// LOC664862 /// LOC673335),[2],−0.5076
same,Gene expression data AK010447 (Smyd3),[2],−1.2553
same,Gene expression data AK014608 (4632434l11Rik),[2],1.765
same,Gene expression data AK019979 (2610528E23Rik),[2],−2.537
same,Gene expression data AV095209 (Mthfd1l),[2],−0.8398
same,Gene expression data AV141095 (1110033M05Rik),[2],−1.295
same,Gene expression data AV173571 (1700106N22Rik),[2],−1.239
same,Gene expression data AV219418 (Ldhb),[2],0.2817
same,Gene expression data AV223474 (Zdhhc14),[2],−1.025
same,Gene expression data AV298304 (Homez),[2],1.03
same,Gene expression data AV327248 (Zfp365 /// LOC674611),[2],0.8055
same,Gene expression data AV377066 (9130221J18Rik),[2],1.0883
same,Gene expression data AW240761 (Tbc1d5),[2],−1.118
same,Gene expression data AW543460 (Pard3),[2],−0.2756
same,Gene expression data AW543723,[2],1.427
same,Gene expression data AW986246 (Maoa),[2],−0.3385
same,Gene expression data BB027848 (4732466D17Rik),[2],−0.016
same,Gene expression data BB043558 (9230114K14Rik),[2],1.671
same,Gene expression data BB275142 (AW456874),[2],1.009
same,Gene expression data BB308836 (Ppm1l),[2],−1.077
same,Gene expression data BB318221 (Zdhhc14),[2],−1.0808
same,Gene expression data BB463610 (4632434l11Rik),[2],1.7658
same,Gene expression data BB526605 (Mipol1),[2],−0.7181
same,Gene expression data BB770528 (Rai2),[2],0.7477
same,Gene expression data BB821363 (Scfd2),[2],−1.354
same,Gene expression data BC004827 (Psat1),[2],−1.0032
same,Gene expression data BC008626 (Icam1),[2],1.4158
same,Gene expression data BC010462 (BC010462),[2],0.9985
same,Gene expression data BC012247 (Dcxr),[2],0.3677
same,Gene expression data BC012260 (Psmf1),[2],1.2375
same,Gene expression data BC015270 (Hist2h3c2),[2],1.093
same,Gene expression data BC016073 (Cdkal1),[2],−1.1
same,Gene expression data BC016265 (Ube2e2),[2],−0.8797
same,Gene expression data BC019882 (Acaa1b),[2],0.4654
same,Gene expression data BC025501 (Aaas),[2],1.14
same,Gene expression data BC025837 (Sbk1),[2],0.4694
same,Gene expression data BC025915 (Cova1),[2],−0.642
same,Gene expression data BC026422 (Tgm1),[2],0.8843
same,Gene expression data BF719766 (Thyn1),[2],0.3892
same,Gene expression data BG065754 (Ccng1),[2],0.8383
same,Gene expression data BG066903 (Kif16b),[2],−0.5074
same,Gene expression data BG069873 (Gnb1l),[2],0.7276
same,Gene expression data BG070887 (Gtdc1),[2],−1.473
same,Gene expression data BG076151 (Ppm1d),[2],0.6026
same,Gene expression data BG261907 (Large),[2],−1.119
same,Gene expression data BI651416 (Cdc42bpg),[2],1.8011
same,Gene expression data BI660702 (Ell3),[2],0.4068
same,Gene expression data BM198879 (Ercc5),[2],1.61
same,Gene expression data BM230508 (A030007D23Rik),[2],0.5919
same,Gene expression data NM_007987 (Fas),[2],0.628
same,Gene expression data NM_008522 (Ltf),[2],1.055
same,Gene expression data NM_008576 (Abcc1),[2],−0.1885
same,Gene expression data NM_011176 (St14),[2],1.289
same,Gene expression data NM_011316 (Saa4),[2],0.2733
same,Gene expression data NM_012006 (Acot1),[2],1.251
same,Gene expression data NM_013866 (Zfp385),[2],0.9513
same,Gene expression data NM_018770 (Igsf4a),[2],−0.439
same,Gene expression data NM_021451 (Pmaip1),[2],1.1
same,Gene expression data NM_025770 (Atg10),[2],−1.128
same,Gene expression data NM_028803 (Gbe1),[2],−1.004
same,Gene expression data NM_030697 (Ankrd47),[2],1.8143
same,Gene expression data NM_053168 (Trim11),[2],1.268
same,Gene expression data NM_134188 (Acot2),[2],0.01207
same,Gene expression data Y15910 (Diap2),[2],−1.889

# From US20120122727A1, “IN VITRO METHOD FOR PREDICTING WHETHER A COMPOUND IS GENOTOXIC IN VIVO” (priority 2009, published 2012)
